Molecular target: T1, TGF-β receptor type-1 (TGFβR1) (Homo sapiens, UniProt P36897)
T1 sequence (P36897 200-503 limits assumed): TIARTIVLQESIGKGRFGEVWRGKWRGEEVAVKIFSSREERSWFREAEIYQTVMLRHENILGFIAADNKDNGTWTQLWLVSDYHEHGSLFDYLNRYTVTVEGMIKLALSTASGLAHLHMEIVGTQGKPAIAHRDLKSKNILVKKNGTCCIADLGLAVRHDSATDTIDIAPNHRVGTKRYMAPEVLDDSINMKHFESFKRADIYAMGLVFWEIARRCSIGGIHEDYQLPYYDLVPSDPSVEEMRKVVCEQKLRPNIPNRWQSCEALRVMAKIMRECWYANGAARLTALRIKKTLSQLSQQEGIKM
Experiment: SPR
Format: binding

Kd: 24 µM
SMILES: CC(=O)O[C@@H]1C[C@H](O)[C@@]23COC(O)C1(C)[C@@H]2C[C@@H](O)[C@@]1(C)[C@@H]2C(=O)C[C@@H](c4ccoc4)[C@]2(C)[C@@H](OC(C)=O)C(=O)[C@@H]13 (stereo partly shown) [ITSN, Isotoosendanin]
